Source: paper PMC8393492, “Linking the Phytochemicals and the α-Glucosidase and α-Amylase Enzyme Inhibitory Effects of Nigella sativa Seed Extracts” (Foods, 2021)

Key:
intestinal α-glucosidase = intestinal α-glucosidase (Rattus norvegicus, UniProt P23739); assay: In vitro intestinal α-glucosidase inhibitory assay (sucrose substrate, glucose release); format: biochemical; conditions: for Inhibition Type: Lineweaver–Burk plots, inhibitor 50 µM (acarbose 5 µM); for Vmax: enzyme Vmax in presence of inhibitor 50 µM (acarbose 5 µM), control 14.1 ± 0.7
Experimental: The effect of the N. sativa seed extracts and fractions against intestinal α-glucosidase activity was quantified colorimetrically by monitoring the glucose release from sucrose degradation, according to the protocol described by Ouassou et al.. The assay mixtures contained 100 µL of sucrose (50 Mm), 1000 μL of phosphate- buffer (50 mM; pH = 7.5), and 100 μL of intestinal α-glucosidase enzyme solution (10 IU). […] Then, tubes were incubated at 37 °C in a water bath for 25 min. The mixture was heated at 100 °C for 5 min to stop the enzymatic reaction, and the release of glucose was estimated by the glucose oxidase method using a commercially available auto-kit. The absorbance was measured at 500 nm, and the inhibition percentage was calculated using the below formula:Inhibitory activity percentage = ((Acontrol 500 nm − ATest 500 nm)/Acontrol 500 nm) × 100(1)
The assays were conducted as described above. […] The experiments were repeated three times.

pancreatic α-amylase = biological target: T1, pancreatic α-amylase (Sus scrofa, UniProt P00690); assay: In vitro pancreatic α-amylase inhibitory assay (starch substrate, DNSA); conditions: for Inhibition Type: Lineweaver–Burk plots, inhibitor 50 µM (acarbose 5 µM); for Vmax: enzyme Vmax in presence of inhibitor 50 µM (acarbose 5 µM), control 29.6 ± 0.8
T1 sequence (P00690 16-511): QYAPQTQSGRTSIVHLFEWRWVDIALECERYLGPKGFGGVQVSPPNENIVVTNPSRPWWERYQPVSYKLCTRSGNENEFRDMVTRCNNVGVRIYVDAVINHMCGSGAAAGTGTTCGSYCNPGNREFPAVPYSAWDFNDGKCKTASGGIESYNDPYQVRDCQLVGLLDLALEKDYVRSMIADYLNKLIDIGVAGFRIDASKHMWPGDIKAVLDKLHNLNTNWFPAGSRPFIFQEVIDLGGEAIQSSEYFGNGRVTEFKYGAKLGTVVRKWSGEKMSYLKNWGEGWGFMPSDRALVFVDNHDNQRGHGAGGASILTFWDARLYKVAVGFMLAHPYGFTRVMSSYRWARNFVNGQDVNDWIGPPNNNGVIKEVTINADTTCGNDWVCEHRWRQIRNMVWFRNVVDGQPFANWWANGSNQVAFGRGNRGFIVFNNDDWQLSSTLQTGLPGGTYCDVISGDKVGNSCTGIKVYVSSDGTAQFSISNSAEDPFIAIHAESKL
Experimental: The inhibition of pancreatic α-amylase activity by N. sativa seed extracts and fractions was studied according to the procedure described by Daoudi et al. [29]. […] The mixtures were pre-incubated at 37 °C for 10 min. Then, 200 μL of starch (1% (w/v)) dissolved in phosphate buffer was added to each tube and were incubated for 20 min at 37 °C. To stop the enzymatic reaction 600 μL of DNSA color reagent was added. Hereafter, the tubes were incubated for 8 min at 100 °C, before being put in an ice-cold-water bath for a few minutes. The mixture was diluted by adding 1 mL of distilled water and the absorbance was measured at 540 nm. Inhibition percentage was calculated using the formula bellows:Inhibitory activity percentage= ((AControl 540 nm − ATest 540 nm)/AControl 540 nm) × 100(2)
Lineweaver–Burk double reciprocal representation (plotting 1/velocity vs 1/substrate concentration) was used to assess inhibition mode, and kinetic parameters Km and Vmax were determined using the Michaelis-Menten equation.
Secondary plots were used to establish the inhibition constants Ki (slope of the Lineweaver–Burk double reciprocal representation vs inhibitor concentration and intercept of the Lineweaver–Burk double reciprocal representation vs inhibitor concentration).

[1] = extraction solvent; source not given; cited from earlier work

Sequence of intestinal α-glucosidase (P23739 whole entry): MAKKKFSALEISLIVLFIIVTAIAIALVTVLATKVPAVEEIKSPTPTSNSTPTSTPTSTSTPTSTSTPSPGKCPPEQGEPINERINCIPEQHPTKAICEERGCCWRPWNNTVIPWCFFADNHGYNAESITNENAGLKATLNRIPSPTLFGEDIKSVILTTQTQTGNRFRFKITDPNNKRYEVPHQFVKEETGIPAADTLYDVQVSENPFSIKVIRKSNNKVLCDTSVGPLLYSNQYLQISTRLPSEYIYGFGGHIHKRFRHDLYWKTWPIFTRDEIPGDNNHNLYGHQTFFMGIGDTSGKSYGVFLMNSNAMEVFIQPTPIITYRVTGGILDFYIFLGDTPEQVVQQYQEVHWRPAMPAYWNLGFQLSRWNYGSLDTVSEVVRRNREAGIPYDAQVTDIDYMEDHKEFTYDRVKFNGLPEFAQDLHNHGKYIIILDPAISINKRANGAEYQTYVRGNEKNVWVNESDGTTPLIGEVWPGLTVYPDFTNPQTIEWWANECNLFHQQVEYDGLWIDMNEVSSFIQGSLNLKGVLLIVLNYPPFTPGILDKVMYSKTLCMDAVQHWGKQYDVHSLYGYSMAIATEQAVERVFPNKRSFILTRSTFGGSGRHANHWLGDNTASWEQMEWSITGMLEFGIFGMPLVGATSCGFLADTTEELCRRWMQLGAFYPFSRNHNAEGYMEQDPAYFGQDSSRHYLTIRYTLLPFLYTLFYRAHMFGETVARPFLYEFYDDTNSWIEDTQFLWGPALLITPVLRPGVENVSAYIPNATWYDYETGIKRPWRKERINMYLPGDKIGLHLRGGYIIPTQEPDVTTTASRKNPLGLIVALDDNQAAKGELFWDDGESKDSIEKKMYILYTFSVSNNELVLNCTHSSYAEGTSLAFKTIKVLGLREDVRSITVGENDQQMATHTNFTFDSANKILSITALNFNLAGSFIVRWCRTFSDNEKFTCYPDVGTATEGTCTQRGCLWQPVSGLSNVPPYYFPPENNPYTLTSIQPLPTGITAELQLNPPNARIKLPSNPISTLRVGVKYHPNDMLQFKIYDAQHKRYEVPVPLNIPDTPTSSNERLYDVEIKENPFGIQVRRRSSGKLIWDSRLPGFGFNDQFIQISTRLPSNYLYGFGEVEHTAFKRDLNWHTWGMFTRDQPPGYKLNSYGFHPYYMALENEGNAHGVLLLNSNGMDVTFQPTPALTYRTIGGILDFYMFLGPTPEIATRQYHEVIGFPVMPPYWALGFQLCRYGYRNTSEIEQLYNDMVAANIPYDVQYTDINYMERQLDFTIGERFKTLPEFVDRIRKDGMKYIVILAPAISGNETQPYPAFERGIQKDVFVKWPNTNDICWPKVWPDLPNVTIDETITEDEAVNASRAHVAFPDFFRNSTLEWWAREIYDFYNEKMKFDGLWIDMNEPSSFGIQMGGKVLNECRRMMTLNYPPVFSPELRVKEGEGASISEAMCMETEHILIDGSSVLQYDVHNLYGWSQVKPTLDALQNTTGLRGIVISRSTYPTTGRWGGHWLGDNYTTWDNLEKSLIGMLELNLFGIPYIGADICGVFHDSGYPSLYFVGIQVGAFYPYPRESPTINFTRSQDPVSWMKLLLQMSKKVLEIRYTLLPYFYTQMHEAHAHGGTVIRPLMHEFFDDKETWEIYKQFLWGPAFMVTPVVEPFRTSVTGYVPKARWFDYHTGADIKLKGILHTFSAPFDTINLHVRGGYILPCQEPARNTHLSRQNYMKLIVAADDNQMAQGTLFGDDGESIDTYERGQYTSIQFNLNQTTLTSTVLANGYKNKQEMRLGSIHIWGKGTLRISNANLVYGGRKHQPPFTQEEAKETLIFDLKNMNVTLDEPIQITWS

Compound	Inhibition Type (intestinal α-glucosidase)	Vmax (intestinal α-glucosidase) [µM/min]	Inhibition Type (pancreatic α-amylase)	Vmax (pancreatic α-amylase) [µM/min]	other results
Oc1cc(O)c2c(c1)O[C@@H](c1ccc(O)c(O)c1)[C@H](O)C2 [(−)-Catechin, (−)-catechin]	Noncompetitive	13.1 ± 0.9			fractional inhibition concentration (FIC) (intestinal α-glucosidase; mixed with acarbose, FIC = IC50 in combination with acarbose/IC50 alone, synergistic effect): 0.16
C[C@H]1O[C@H](O[C@H]2[C@H](O)[C@@H](O)[C@@H](O[C@H]3[C@H](O)[C@@H](O)C(O)O[C@@H]3CO)O[C@@H]2CO)[C@H](O)[C@@H](O)[C@@H]1N[C@H]1C=C(CO)[C@@H](O)[C@H](O)[C@H]1O (stereo partly shown) [Acarbose, acarbose, reference compound]	Competitive	23.9 ± 0.5	Competitive	53.8 ± 1.1	inhibition at 50 µM (intestinal α-glucosidase; read-out: Inhibition of intestinal α-glucosidase activity): 89.2 ± 0.5%; Inhibition of pancreatic α-amylase activity (pancreatic α-amylase; positive control at 5 µM (3.22 µg/mL)): 65.6 ± 4.1%
CC(C)=O [Acetone]					logP [1]: −0.16
O=c1cc(-c2ccc(O)cc2)oc2cc(O)cc(O)c12 [Apigenin, apigenin]			Competitive	90.1 ± 0.7	fractional inhibition concentration (FIC) (pancreatic α-amylase; combined with acarbose, possible additive effect): 0.74
O=C(O)c1cc(O)c(O)c(O)c1 [Gallic acid, gallic acid]	Noncompetitive	14.7 ± 1.2	Competitive	76.9 ± 1.4	IC50 (pancreatic α-amylase): 27.8 ± 2.06 µM
CC1=CC(=O)C(C(C)C)=CC1=O [thymoquinone]					inhibition of intestinal α-glucosidase (in words) (intestinal α-glucosidase; under the evaluated concentration range (50 µM in kinetics), data not shown): not active
